Columns and labels:
Format in all cases: cell-based
ERα [1] = target: T1, ERα (Homo sapiens, UniProt P03372); test: Degradation of ERα in T-47D cells (immunoblotting, 4 h); parameters: host or cells: T-47D
T1 sequence (P03372 1-595): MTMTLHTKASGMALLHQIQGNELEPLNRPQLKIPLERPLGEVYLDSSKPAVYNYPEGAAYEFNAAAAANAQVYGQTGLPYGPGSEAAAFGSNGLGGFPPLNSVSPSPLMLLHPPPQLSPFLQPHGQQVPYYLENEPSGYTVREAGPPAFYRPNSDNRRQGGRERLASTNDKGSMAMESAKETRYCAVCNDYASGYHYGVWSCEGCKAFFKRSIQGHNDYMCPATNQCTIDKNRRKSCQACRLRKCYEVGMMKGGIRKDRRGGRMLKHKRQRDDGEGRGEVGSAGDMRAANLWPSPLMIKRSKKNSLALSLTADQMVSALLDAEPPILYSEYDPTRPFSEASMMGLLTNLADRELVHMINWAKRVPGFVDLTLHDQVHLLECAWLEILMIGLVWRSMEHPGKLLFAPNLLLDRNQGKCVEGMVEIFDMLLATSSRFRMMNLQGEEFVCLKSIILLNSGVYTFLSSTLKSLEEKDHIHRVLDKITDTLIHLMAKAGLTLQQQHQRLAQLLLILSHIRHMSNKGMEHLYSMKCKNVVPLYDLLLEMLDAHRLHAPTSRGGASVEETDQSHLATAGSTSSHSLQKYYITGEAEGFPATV
Procedure, shortened: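 T-47D cells were treated with compound (final 0.15-1000 nM, DMSO) for 4 h at 37°C, 5% CO2. Cells were lysed in RIPA buffer with protease inhibitor, and ERα protein in the cleared lysate was measured by immunoblotting.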

ERα [2] = target: T1, ERα; test: Degradation of ERα in MCF-7 cells (immunoblotting, 4 h)
Procedure, shortened: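 MCF-7 cells treated 4 h at 37°C with compounds at 0.15-1000nM final. ERα in lysates measured by immunoblot, with band grayscale normalized to an internal reference protein. Degradation rate calculated against DMSO-treated control.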

MCF-7 cells = test: Inhibition of cell proliferation of MCF-7 cells (CCK-8, 9 days); conditions: treated for 9 days, CCK-8 kit (Table 6)
Procedure, shortened: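 MCF-7 cells seeded at 800 cells/well in DMEM with 10% FBS, exposed to a range of compound concentrations for 9 days at 37°C, 5% CO2. Viability read by CCK-8; IC50 derived for proliferation inhibition.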

SMILES	Degradation rate (%) of ERα in T-47D cells (ERα [1]; 1nM compound)	Degradation rate (%) of ERα in T-47D cells (ERα [1]; 10nM compound)	Degradation rate (%) of ERα in MCF-7 cells (ERα [2]; 1nM compound)	Degradation rate (%) of ERα in MCF-7 cells (ERα [2]; 10nM compound)	IC50 (MCF-7 cells)
O=C1CCC(N2Cc3c(ccc4c3OCC43CCN(C(=O)[C@H]4C[C@@H](OC5CCN(c6ccc([C@@H]7c8ccc(O)cc8CC[C@@H]7c7ccccc7)cc6)CC5)C4)CC3)C2=O)C(=O)N1 (stereo partly shown) [H61]	63%	76%	37%	40%	4020 nM
C[C@@H]1Cc2cc(O)ccc2[C@@H](c2c(F)cc(N3CCC(C(=O)N4CCC(N5CCC6(CC5)COc5c6ccc6c5CN(C5CCC(=O)NC5=O)C6=O)CC4)CC3)cc2F)N1CC(F)F (stereo partly shown) [I2]	56%	55%	63%	61%	11.7 nM
C[C@@H]1Cc2cc(O)ccc2C(c2c(F)cc(N3CCC4(CC3)CC(N3CCC(N5CCC6(CC5)COc5c6ccc6c5CN(C5CCC(=O)NC5=O)C6=O)[C@@H](F)C3)C4)cc2F)N1CC(F)F (stereo partly shown) [I3]	41%	68%	40%	67%	14.9 nM
C[C@@H]1CN(C(=O)C2CCN(c3cc(F)c(C4c5ccc(O)cc5C[C@@H](C)N4CC(F)F)c(F)c3)CC2)CCC1N1CCC2(CC1)COc1c2ccc2c1CN(C1CCC(=O)NC1=O)C2=O (stereo partly shown) [I5]	55%	68%	60%	56%	10.5 nM
C[C@@H]1Cc2cc(O)ccc2C(c2c(F)cc(N3CCN(C[C@H]4CC[C@H](C(=O)N5CCC6(CC5)COc5c6ccc6c5CN(C5CCC(=O)NC5=O)C6=O)CC4)CC3)cc2F)N1CC(F)F (stereo partly shown) [I6]	56%	65%	57%	45%	6.57 nM
O=C1CCC(N2Cc3c(ccc4c3OCC43CCN(c4ccc(C(=O)N5CCN(c6ccc([C@@H]7c8ccc(O)cc8CC[C@@H]7c7ccccc7)cc6)CC5)cn4)CC3)C2=O)C(=O)N1 (stereo partly shown) [J2]	37%	67%	21%	41%	303000 nM
O=C1CCC(N2Cc3c(ccc4c3OCC43CCN(c4ccc(C(=O)N5CCN(c6ccc([C@@H]7c8ccc(O)cc8CC[C@@H]7c7ccccc7)cc6)CC5)nc4)CC3)C2=O)C(=O)N1 (stereo partly shown) [J3]	42%	63%	34%	49%	8.23 nM
O=C1CCC(N2Cc3c(ccc4c3OCC43CCN(C4C5CCC4CN(C(=O)C4CCN(c6ccc([C@@H]7c8ccc(O)cc8CC[C@@H]7c7ccccc7)cc6)CC4)C5)CC3)C2=O)C(=O)N1 (stereo partly shown) [J4]	8%	51%	32%	60%	22.6 nM
O=C1CCC(N2Cc3c(ccc4c3OCC43CCN(C4CCN(CC5CCN(c6ccc([C@@H]7c8ccc(O)cc8CC[C@@H]7c7ccccc7)cc6)CC5)CC4F)CC3)C2=O)C(=O)N1 (stereo partly shown) [J5]	46%	81%	40%	78%	4.63 nM
O=C1CCC(N2Cc3c(ccc4c3OCC43CCN([C@@H]4CCN(CC5CCN(c6ccc([C@@H]7c8ccc(O)cc8CC[C@@H]7c7ccccc7)cc6)CC5)C[C@@H]4F)CC3)C2=O)C(=O)N1 (stereo partly shown) [J6]	39%	81%	52%	68%	9.31 nM
COC(=O)[C@H]1CC(N2CCC3(CC2)COc2c3ccc3c2CN(C2CCC(=O)NC2=O)C3=O)CCN1CC1CCN(c2ccc([C@@H]3c4ccc(O)cc4CC[C@@H]3c3ccccc3)cc2)CC1 (stereo partly shown) [J7]	16%	67%	29%	75%	486 nM
